One assay has as its target T1, SMYD2 (Homo sapiens, UniProt Q9NRG4).
T1 construct: Full length SMYD2 (NP 064582.2) was cloned; His6 (N, cleaved yes); FLAG (N); made in house; host or cells: Sf9 insect cells
The experiment in a line: SMYD2 Biochemical Assay (3H-SAM, biotinylated peptide substrate, Flashplate). Particulars: IC50 values are an average of n = 1 to n = 50; read-out: SMYD2 Biochem IC50 (μM)*. The source says: S-adenosylmethionine (SAM), S-adenosylhomocysteine (SAH), bicine, Tween20, dimethylsulfoxide (DMSO), bovine skin gelatin (BSG), and Tris(2-carboxyethyl)phosphine hydrochloride (TCEP) were purchased from Sigma-Aldrich at the highest level of purity possible. ^3H-SAM was purchase from American Radiolabeled Chemicals with a specific activity of 80 Ci/mmol. 384-well streptavidin Flashplates were purchased from PerkinElmer.
Peptide was synthesized with a N-terminal linker-affinity tag motif and a C-terminal amide cap by 21st Century Biochemicals. The peptide was high-performance liquid chromatography (HPLC) purified to greater than 95% purity and confirmed by liquid chromatography mass spectrometry (LC-MS). The sequence was […](K-Biot)-amide. (SEQ ID No: 3)
Full length SMYD2 (NP 064582.2) was cloned into a pFastbac-Htb-lic vector with an N-terminal His6 tag and FLAG tag, preceded by a TEV protease cleavage site. The protein was expressed in Sf9 insect cells. Cells were resuspended in lysis buffer (25 mM HEPES-NaOH, pH 7.5, 200 mM NaCl, 5% glycerol, and 5 mM β-ME) and lysed by sonication. The protein was purified by Ni-NTA (Qiagen), followed by TEV cleavage to remove the His6 tag, subtractive Ni-NTA (Qiagen), and gel filtration chromatography using an […] (GE Healthcare). Purified protein was stored in 20 mM Tris-HCl, pH 8.0, 100 mM NaCl, and 1 mM TCEP.
The assays were all performed in a buffer consisting of 20 mM Bicine (pH=7.6), 1 mM TCEP, 0.005% Bovine Skin Gelatin, and 0.002% Tween20, prepared on the day of use. Compounds in 100% DMSO (1 ul) were spotted into a polypropylene 384-well V-bottom plates (Greiner) using a Platemate Plus outfitted with a 384-channel head (Thermo Scientific). DMSO (1 ul) was added to Columns 11, 12, 23, 24, rows A-H for the maximum signal control and 1 ul of SAH, a known product and inhibitor of SMYD2, was added to columns 11, 12, 23, 24, rows I-P for the minimum signal control. A cocktail (40 ul) containing the SMYD2 enzyme was added by Multidrop Combi (Thermo-Fisher). The compounds were allowed to incubate with SMYD2 for 30 min at room temperature, then a cocktail (10 ul) containing ^3H-SAM and peptide was added to initiate the reaction (final volume=51 ul). The final concentrations of the components were as follows: SMYD2 was 1.5 nM, ^3H-SAM was 10 nM, and peptide was 60 nM, SAH in the minimum signal control wells was 1000 uM, and the DMSO concentration was 2%. The assays were stopped by the addition of non-radioactive SAM (10 ul) to a final concentration of 600 uM, which dilutes the ^3H-SAM to a level where its incorporation into the peptide substrate is no longer detectable. 50 ul of the reaction in the 384-well polypropylene plate was then transferred to a 384-well Flashplate and the biotinylated peptides were allowed to bind to the streptavidin surface for at least 1 hour before being washed three times with 0.1% Tween20 in a Biotek ELx405 plate washer. The plates were then read in a PerkinElmer TopCount plate reader to measure the quantity of ^3H-labeled peptide bound to the Flashplate surface, measured as disintegrations per minute (dpm) or alternatively, referred to as counts per minute (cpm).
Where dpm=disintegrations per minute, cmpd=signal in assay well, and min and max are the respective minimum and maximum signal controls.
Where top and bottom are the normally allowed to float, but may be fixed at 100 or 0 respectively in a 3-parameter fit. The Hill Coefficient normally allowed to float but may also be fixed at 1 in a 3-parameter fit. I is the compound concentration.
SMYD2 biochemical assay data for representative Compounds of the Disclosure are presented in Tables 1-3 in the column titled “SMYD2 Biochem IC50 (μM).”
T1 sequence (Q9NRG4 whole entry): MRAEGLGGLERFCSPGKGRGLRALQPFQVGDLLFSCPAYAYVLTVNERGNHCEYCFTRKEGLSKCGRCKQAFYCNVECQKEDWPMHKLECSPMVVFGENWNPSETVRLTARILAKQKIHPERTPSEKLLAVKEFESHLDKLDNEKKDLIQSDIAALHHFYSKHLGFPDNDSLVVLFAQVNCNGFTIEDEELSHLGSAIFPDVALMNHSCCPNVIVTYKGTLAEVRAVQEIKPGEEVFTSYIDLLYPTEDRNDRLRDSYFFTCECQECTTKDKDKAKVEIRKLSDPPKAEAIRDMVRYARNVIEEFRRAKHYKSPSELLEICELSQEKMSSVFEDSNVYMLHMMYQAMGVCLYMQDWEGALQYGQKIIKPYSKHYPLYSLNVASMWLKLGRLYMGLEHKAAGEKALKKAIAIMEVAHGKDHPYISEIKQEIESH
The term IC50 denotes the concentration at which inhibition is half-maximal. As to `COc1ccc(CN2C[C@@H](C)[C@H](NC(=O)c3cc(C4CC4)on3)C2)cc1` (racemic) [compound 149, (±)-trans-5-cyclopropyl-N-[1-[(4-methoxy-phenyl)methyl]-4-methylpyrrolidin-3-yl]-1,2-oxazole-3-carboxamide], the IC50 was determined as 45.6 µM.
`C[C@@H]1CN(Cc2ccccc2)C[C@H]1NC(=O)c1cc(C2CC2)on1` (racemic) [compound 117, (±)-trans-N-(1-benzyl-4-methylpyrrolidin-3-yl)-5-cyclopropyl-1,2-oxazole-3-carboxamide]: the IC50 is above 50 µM.
Take `CC(C)c1cc(C(=O)N[C@@H]2CN(C(C)C)C[C@@H]2C)no1` (racemic) [compound 193, (±)-cis-N-[4-methyl-1-(propan-2-yl)pyrrolidin-3-yl]-5-(propan-2-yl)-1,2-oxazole-3-carboxamide]: the IC50 is 7.85 µM.
As for `C[C@H]1CN(CCF)C[C@H]1NC(=O)c1cc(C2CC2)on1` (racemic) [compound 254, (±)-cis-5-cyclopropyl-N-[1-(2-fluoroethyl)-4-methylpyrrolidin-3-yl]-1,2-oxazole-3-carboxamide], the IC50 is 5.72 µM.
Same read-out and setting: for `C[C@H]1CN(CC(=O)N(C)C)C[C@H]1NC(=O)c1cc(C2CC2)on1` (racemic) [compound 267, (±)-cis-5-cyclopropyl-N-[1-[(dimethyl-carbamoyl)methyl]-4-methylpyrrolidin-3-yl]-1,2-oxazole-3-carboxamide] the value was above 50 µM; for `C[C@H]1CN(Cc2nccn2C)C[C@H]1NC(=O)c1cc(C2CC2)on1` (racemic) [compound 305, (±)-cis-5-cyclopropyl-N-{4-methyl-1-[(1-methyl-1H-imidazol-2-yl)methyl]pyrrolidin-3-yl}-1,2-oxazole-3-carboxamide], 41.1 µM.
Regarding `C[C@H]1CN(Cc2cccc3cccnc23)C[C@H]1NC(=O)c1cc(C2CC2)on1` (racemic) [compound 266, (±)-cis-5-cyclopropyl-N-[4-methyl-1-(quinolin-8-ylmethyl)pyrrolidin-3-yl]-1,2-oxazole-3-carboxamide], the half-inhibitory concentration (IC50) was 12.3 µM.
Still for that read-out and setting: to `C[C@H]1CN(CC2CCN(C)CC2)C[C@H]1NC(=O)c1cc(C2CC2)on1` (racemic) [compound 338, (±)-cis-5-cyclopropyl-N-{4-methyl-1-[(1-methylpiperidin-4-yl)methyl]pyrrolidin-3-yl}-1,2-oxazole-3-carboxamide] belongs above 50 µM; to `O=C(N[C@@H]1CN(C2CC2)C[C@H]1CO)c1cc(C2CC2)on1` [compound 168, 5-cyclopropyl-N-[(3S,4R)-1-cyclopropyl-4-(hydroxymethyl)pyrrolidin-3-yl]-1,2-oxazole-3-carboxamide], 43.2 µM; to `CC(=O)Nc1cccc(N2C[C@H](C)[C@H](NC(=O)c3cc(C4CC4)on3)C2)c1` (racemic) [compound 325, (±)-cis-5-cyclopropyl-N-[1-(3-acetamidophenyl)-4-methylpyrrolidin-3-yl]-1,2-oxazole-3-carboxamide], above 50 µM.
With `C[C@H]1CN(c2ccnc(N)n2)C[C@H]1NC(=O)c1cc(C2CC2)on1` (racemic) [compound 334, (±)-cis-N-[1-(2-amino-pyrimidin-4-yl)-4-methylpyrrolidin-3-yl]-5-cyclopropyl-1,2-oxazole-3-carboxamide], the IC50 is above 50 µM.
Turning to `CC(Cc1ccc2c(c1)OCO2)CN1C[C@H](C)[C@H](NC(=O)c2cc(C3CC3)on2)C1` (relative stereo) [compound 323, cis-N-{1-[2-(2H-1,3-benzodioxol-5-ylmethyl)propyl]-4-methylpyrrolidin-3-yl}-5-cyclopropyl-1,2-oxazole-3-carboxamide], the IC50 is 9.31 µM.
Same read-out and setting: to `CC(C)N1C[C@H](NC(=O)c2cc(C3CC3)on2)C[C@@H]1COCC#Cc1ccccc1` (stereo in doubt) [compound 238, (±)-cis-5-cyclopropyl-N-[5-{[(3-phenylprop-2-yn-1-yl)oxy]methyl}-1-(propan-2-yl)pyrrolidin-3-yl]-1,2-oxazole-3-carboxamide] belongs 39.7 µM; to `CC(C)N1C[C@@H](C(F)(F)F)[C@H](NC(=O)c2cc(C3CC3)on2)C1` (racemic) [compound 252, (±)-trans-5-cyclopropyl-N-[1-(propan-2-yl)-4-(trifluoromethyl)pyrrolidin-3-yl]-1,2-oxazole-3-carboxamide], above 50 µM.

Still in this assay, the particulars now being: Table 1; average of n = 1 to n = 50; read-out: SMYD2 Biochem IC50.
Consider `O=C(NC1CNCC1O)c1cc(C2CC2)on1` (stereo not shown) [compound 37, 5-cyclopropyl-N-(4-hydroxypyrrolidin-3-yl)isoxazole-3-carboxamide], for which the IC50 turned out to be 36.1 µM.
For `C[C@@H]1CN(C)C[C@H]1NC(=O)c1cc(C2CC2)on1` (racemic) [compound 39], the IC50 was determined as 33.6 µM.
For the compound `C[C@H]1CN(C2CC2)C[C@H]1NC(=O)c1cc(C2CC2)on1` (racemic) [Cpd. No. 45, (±)-cis-5-cyclopropyl-N-(1-cyclopropyl-4-methylpyrrolidin-3-yl)isoxazole-3-carboxamide], the IC50 worked out at 19.2 µM.
The same measure, in the same setting: to `C[C@@H]1CN(C2CC2)C[C@H]1NC(=O)c1cc(C2CC2)on1` (racemic) [Cpd. No. 46, (±)-trans-5-cyclopropyl-N-(1-cyclopropyl-4-methylpyrrolidin-3-yl)isoxazole-3-carboxamide] belongs 2.75 µM.

The assay is the same for the next values; noted with them: Table 2; average of n = 1 to n = 50; read-out: SMYD2 Biochem IC50.
Take `CCN1C[C@@H](C)[C@H](NC(=O)c2cc(C3CC3)on2)C1` (racemic) [compound 88, (±)-trans-5-cyclopropyl-N-(1-ethyl-4-methylpyrrolidin-3-yl)isoxazole-3-carboxamide]: the IC50 is 34.2 µM.
`C[C@@H]1CN(CCN)C[C@H]1NC(=O)c1cc(C2CC2)on1` (racemic) [compound 101, (±)-trans-N-(1-(2-aminoethyl)-4-methylpyrrolidin-3-yl)-5-cyclopropylisoxazole-3-carboxamide]: the concentration for half-maximal inhibition (IC50) is above 50 µM.
Still for that read-out and setting: for `C[C@H]1CN(Cc2ccncc2)C[C@H]1NC(=O)c1cc(C2CC2)on1` (racemic) [compound 108, (±)-cis-5-cyclopropyl-N-(4-methyl-1-(pyridin-4-ylmethyl)pyrrolidin-3-yl)isoxazole-3-carboxamide] the value was 22.6 µM; for `CC(=O)N1C[C@H](C)[C@H](NC(=O)c2cc(C3CC3)on2)C1` (racemic) [compound 111, (±)-cis-N-(1-acetyl-4-methylpyrrolidin-3-yl)-5-cyclopropylisoxazole-3-carboxamide], above 50 µM; for `C[C@H]1CN(C(=O)C2CCNCC2)C[C@H]1NC(=O)c1cc(C2CC2)on1` (racemic) [compound 70, (±)-cis-5-cyclopropyl-N-(4-methyl-1-(piperidine-4-carbonyl)pyrrolidin-3-yl)isoxazole-3-carboxamide], above 50 µM.
Regarding `CC(=O)N1CCC(N2C[C@@H](C)[C@H](NC(=O)c3cc(C4CC4)on3)C2)CC1` (racemic) [compound 106, (±)-trans-N-(1-(1-acetylpiperidin-4-yl)-4-methylpyrrolidin-3-yl)-5-cyclopropylisoxazole-3-carboxamide], the half-maximal inhibitory concentration (IC50) is above 50 µM.
Still for that read-out and setting: to `C[C@@H]1CN(CCS(C)(=O)=O)C[C@H]1NC(=O)c1cc(C2CC2)on1` (racemic) [compound 100, (±)-trans-5-cyclopropyl-N-(4-methyl-1-(2-(methyl-sulfonyl)ethyl)pyrrolidin-3-yl)isoxazole-3-carboxamide] belongs above 50 µM.

(Values after US20170253601A1, “Substituted Pyrrolidine Compounds” (EPIZYME, INC., priority 2014, published 2017).)
